Measurements taken from ChEMBL document CHEMBL1201862, “PubChem BioAssay data set” (2004).
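Method: 48-hour compound exposure of cells in 96-well plates, five concentrations, linear interpolation of endpoints. At the GI50, growth is halved.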 Active and inactive are the calls of the source. Rule as the data show it: active = GI50 up to about 1.1 µM and inactive = higher.

How the values were obtained:
Assay in all cases: DTP human tumour cell line panel, 48 h
[1] = tested on: A498
[2] = tested on: A549
[3] = tested on: BT-549
[4] = tested on: HCT-116
[5] = tested on: HOP-62
[6] = tested on: HOP-92
[7] = tested on: KM12
[8] = tested on: MDA-MB-231
[9] = tested on: Malme-3M
[10] = tested on: NCI-H460
[11] = tested on: OVCAR-8
[12] = tested on: RXF 393
[13] = tested on: SK-OV-3
[14] = tested on: SN12C
[15] = tested on: SR
[16] = tested on: SW-620
[17] = tested on: T47D
[18] = tested on: UACC-62
[19] = tested on: HCC 2998

| Structure (SMILES) | GI50 [1] | GI50 [2] | GI50 [3] | GI50 [4] | GI50 [5] | GI50 [6] | GI50 [7] | GI50 [8] | GI50 [9] | GI50 [10] | GI50 [11] | GI50 [12] | GI50 [13] | GI50 [14] | GI50 [15] | GI50 [16] | GI50 [17] | GI50 [18] | GI50 [19] |
| --- | --- | --- | --- | --- | --- | --- | --- | --- | --- | --- | --- | --- | --- | --- | --- | --- | --- | --- | --- |
| Cc1ccc2c(O)cc(-c3csc4ccccc34)nc2n1 | < 0.01 µM (active) | 0.0164 µM (active) | 0.0183 µM (active) | < 0.0104 µM (active) | < 0.0138 µM (active) | 0.321 µM (active) | < 0.01 µM (active) | 0.021 µM (active) | < 0.01 µM (active) | < 0.0161 µM (active) | 0.0202 µM (active) | < 0.01 µM (active) | < 0.01 µM (active) | 0.0323 µM (active) | < 0.01 µM (active) | < 0.01 µM (active) | 21.2 µM (inactive) | < 0.0122 µM (active) | – |
| COC(NC(N)=O)C(=O)O (configuration not stated) | > 100 µM (inactive) | > 100 µM (inactive) | > 100 µM (inactive) | > 100 µM (inactive) | > 100 µM (inactive) | > 100 µM (inactive) | > 100 µM (inactive) | > 100 µM (inactive) | > 100 µM (inactive) | > 100 µM (inactive) | > 100 µM (inactive) | > 100 µM (inactive) | > 100 µM (inactive) | > 100 µM (inactive) | > 100 µM (inactive) | > 100 µM (inactive) | > 100 µM (inactive) | > 100 µM (inactive) | – |
| Clc1cc2nnn(C3CCCO3)c2cc1Cl (configuration not stated) | 98.4 µM (inactive) | > 100 µM (inactive) | 49.7 µM (inactive) | > 100 µM (inactive) | > 100 µM (inactive) | – | – | > 100 µM (inactive) | > 100 µM (inactive) | > 100 µM (inactive) | > 100 µM (inactive) | > 100 µM (inactive) | > 100 µM (inactive) | > 100 µM (inactive) | 45.8 µM (inactive) | – | > 100 µM (inactive) | > 100 µM (inactive) | > 100 µM (inactive) |
| O=C1C=C/C(=N/c2ccccc2)c2ccccc21 | 21.2 µM (inactive) | 7.38 µM (inactive) | 14.7 µM (inactive) | 12.1 µM (inactive) | 11.2 µM (inactive) | 14.9 µM (inactive) | 11.4 µM (inactive) | 1.9 µM (inactive) | – | 3.32 µM (inactive) | 11.3 µM (inactive) | 10.8 µM (inactive) | 20.4 µM (inactive) | 12.8 µM (inactive) | 11.4 µM (inactive) | 7.03 µM (inactive) | 16.2 µM (inactive) | 3.52 µM (inactive) | 10.2 µM (inactive) |
| O=c1c(C(c2cc(OCc3ccccc3)cc(OCc3ccccc3)c2)c2c(O)oc3ccccc3c2=O)c(O)oc2ccccc12 | 12 µM (inactive) | 7.05 µM (inactive) | 5.01 µM (inactive) | 3.39 µM (inactive) | 10.3 µM (inactive) | 2.69 µM (inactive) | 4.19 µM (inactive) | 4.57 µM (inactive) | – | 3.45 µM (inactive) | 4.18 µM (inactive) | 22.4 µM (inactive) | 6.58 µM (inactive) | 3.71 µM (inactive) | 3.28 µM (inactive) | 4.58 µM (inactive) | 8.55 µM (inactive) | 4.02 µM (inactive) | 3.91 µM (inactive) |
| Nc1nc2c(c(=O)[nH]1)C(c1ccccc1)CC(=O)N2 (configuration not stated) | > 100 µM (inactive) | > 100 µM (inactive) | > 100 µM (inactive) | > 100 µM (inactive) | > 100 µM (inactive) | – | > 100 µM (inactive) | > 100 µM (inactive) | > 100 µM (inactive) | > 100 µM (inactive) | > 100 µM (inactive) | – | > 100 µM (inactive) | > 100 µM (inactive) | > 100 µM (inactive) | > 100 µM (inactive) | > 100 µM (inactive) | > 100 µM (inactive) | > 100 µM (inactive) |
| COc1ccc2c(c1)CC1(O)COc3cc(OC)ccc3C1O2 (configuration not stated) | > 100 µM (inactive) | > 100 µM (inactive) | > 100 µM (inactive) | > 100 µM (inactive) | > 100 µM (inactive) | > 100 µM (inactive) | > 100 µM (inactive) | > 100 µM (inactive) | > 100 µM (inactive) | – | > 100 µM (inactive) | – | > 100 µM (inactive) | > 100 µM (inactive) | > 100 µM (inactive) | 95.1 µM (inactive) | 85.7 µM (inactive) | > 100 µM (inactive) | 77.8 µM (inactive) |
| CN(CCCN(C)Cc1ccc(Cl)c(Cl)c1)CCN1CCCC1 | 13.9 µM (inactive) | 19.1 µM (inactive) | 30.8 µM (inactive) | 12 µM (inactive) | 26.5 µM (inactive) | 4.16 µM (inactive) | 30.7 µM (inactive) | 13.1 µM (inactive) | 15.8 µM (inactive) | 16.9 µM (inactive) | 29.5 µM (inactive) | 15.1 µM (inactive) | 75.3 µM (inactive) | 37.8 µM (inactive) | 8.45 µM (inactive) | 19.7 µM (inactive) | 29.9 µM (inactive) | 1.85 µM (inactive) | 3.5 µM (inactive) |
| C#CCCOC(=O)CC1=C(C)/C(=C/c2ccc([S+](C)[O-])cc2)c2ccc(F)cc21 (configuration not stated) | 10.6 µM (inactive) | – | 13.8 µM (inactive) | 16.8 µM (inactive) | 27.2 µM (inactive) | 12.6 µM (inactive) | 10.8 µM (inactive) | 8.49 µM (inactive) | – | 18 µM (inactive) | 19.7 µM (inactive) | 21.4 µM (inactive) | 37 µM (inactive) | 19.5 µM (inactive) | 3.47 µM (inactive) | 14.3 µM (inactive) | 20.1 µM (inactive) | 13.6 µM (inactive) | 10.4 µM (inactive) |
| CC(O)(Cc1ccccc1C#N)Cc1ccccc1C#N | > 100 µM (inactive) | > 100 µM (inactive) | 38.5 µM (inactive) | > 100 µM (inactive) | > 100 µM (inactive) | 95.5 µM (inactive) | 51.5 µM (inactive) | > 100 µM (inactive) | > 100 µM (inactive) | 73.6 µM (inactive) | 54.7 µM (inactive) | > 100 µM (inactive) | > 100 µM (inactive) | > 100 µM (inactive) | > 100 µM (inactive) | > 100 µM (inactive) | 37.6 µM (inactive) | 59.8 µM (inactive) | > 100 µM (inactive) |
| COc1ccc(CCNC(=O)c2ccccc2C2c3ccc(OCc4ccccc4)cc3Oc3cc(OCc4ccccc4)ccc32)cc1OC | > 100 µM (inactive) | > 100 µM (inactive) | > 100 µM (inactive) | > 100 µM (inactive) | > 100 µM (inactive) | – | > 100 µM (inactive) | > 100 µM (inactive) | > 100 µM (inactive) | – | > 100 µM (inactive) | > 100 µM (inactive) | > 100 µM (inactive) | > 100 µM (inactive) | > 100 µM (inactive) | > 100 µM (inactive) | > 100 µM (inactive) | > 100 µM (inactive) | > 100 µM (inactive) |
| N/N=C(\N)SCCCCCCCCCCS/C(N)=N/N | 15.1 µM (inactive) | 18 µM (inactive) | 19.5 µM (inactive) | 26.8 µM (inactive) | 40.5 µM (inactive) | – | 20 µM (inactive) | 20.4 µM (inactive) | 12 µM (inactive) | 15.9 µM (inactive) | 16.8 µM (inactive) | – | < 0.01 µM (active) | 34.9 µM (inactive) | 13.2 µM (inactive) | 17.7 µM (inactive) | 5.57 µM (inactive) | 21.5 µM (inactive) | 22.4 µM (inactive) |
| CSc1nc(SC)c2c(CN=[N+]=[N-])c(Br)n(Cc3ccccc3)c2n1 | > 100 µM (inactive) | > 100 µM (inactive) | > 100 µM (inactive) | 45.6 µM (inactive) | 92.3 µM (inactive) | 15 µM (inactive) | > 100 µM (inactive) | 52.7 µM (inactive) | > 100 µM (inactive) | > 100 µM (inactive) | > 100 µM (inactive) | – | 24.1 µM (inactive) | > 100 µM (inactive) | 26 µM (inactive) | > 100 µM (inactive) | 11.7 µM (inactive) | 47.3 µM (inactive) | > 100 µM (inactive) |
| Cc1ccc(CC2(OCCN(C)C)CCC(C(C)(C)C)CC2)cc1 (configuration not stated) | 11.4 µM (inactive) | 7 µM (inactive) | 6.22 µM (inactive) | 2.26 µM (inactive) | 2.55 µM (inactive) | – | 2.86 µM (inactive) | 5.56 µM (inactive) | 1.99 µM (inactive) | 1.79 µM (inactive) | 9.4 µM (inactive) | – | 11.2 µM (inactive) | 5.97 µM (inactive) | 2.08 µM (inactive) | 2.45 µM (inactive) | 2.68 µM (inactive) | 3.31 µM (inactive) | 1.9 µM (inactive) |
| O=C(O)C1C(C(=O)O)C(C(=O)O)C1C(=O)O (configuration not stated) | > 100 µM (inactive) | > 100 µM (inactive) | > 100 µM (inactive) | > 100 µM (inactive) | > 100 µM (inactive) | > 100 µM (inactive) | > 100 µM (inactive) | > 100 µM (inactive) | > 100 µM (inactive) | > 100 µM (inactive) | > 100 µM (inactive) | > 100 µM (inactive) | > 100 µM (inactive) | > 100 µM (inactive) | 28.9 µM (inactive) | > 100 µM (inactive) | > 100 µM (inactive) | > 100 µM (inactive) | – |
| COC(=O)c1c(O)ccc2c1c1cc3ccccc3c(O)c1n2CCc1ccc(OC)c(OC)c1 | > 100 µM (inactive) | 43.2 µM (inactive) | 16.7 µM (inactive) | 97.1 µM (inactive) | > 100 µM (inactive) | 31.3 µM (inactive) | 51.3 µM (inactive) | > 100 µM (inactive) | 59.4 µM (inactive) | 20.9 µM (inactive) | 63.4 µM (inactive) | > 100 µM (inactive) | > 100 µM (inactive) | > 100 µM (inactive) | 38.4 µM (inactive) | – | 42.9 µM (inactive) | > 100 µM (inactive) | 27.4 µM (inactive) |
